We go through four molecules from patent EP0354047A2, “Herbicidal method using atrazine” (MAY & BAKER LIMITED, priority 1988, dated 1990).

In general, inhibition refers to the drop in the measured response relative to a control, in per cent. Broadly, the % inhibition of growth is the relative decrease from the control value, in per cent.

Holding throughout (format): in vivo
The subject of one experiment is Amaranthus retroflexus. Put plainly: Experiment 3: glasshouse, post-emergence, fresh weight after 19 days, % inhibition of growth. Particulars: 2 leaves; for inhibition at 2 g/ha / inhibition at 4 g/ha / inhibition at 8 g/ha / inhibition at 16 g/ha / inhibition at 31 g/ha / inhibition at 63 g/ha: Amaranthus retroflexus, post-emergence. The method, then:
(§1) A series of experiments was carried out to determine the nature of the biological interaction between atrazine and five compounds of general formula I on a range of weed species. […] The growth stages of the plants at spraying are also presented with the results. Agricultural surfactant (nonyl phenol ethylene oxide condensate containing 9 moles ethylene oxide marketed as 'Agral') was added to all spray dilutions to give 0.2% v/v concentration. […] After 19 days the fresh weight of vegetation in each pot was determined. […] E = […]00003:character} where E, X and Y are percentage inhibition of growth. In addition, the ED50 or ED90 values (the application rates giving 50% or 90% inhibition of growth, respectively) were calculated from the results for the piperidinedione alone and with increasing rates of atrazine.

Experiment [1] concerns Brassica kaber. Described as above. The note with it: 2 leaves; for inhibition at 2 g/ha / inhibition at 4 g/ha / inhibition at 8 g/ha / inhibition at 16 g/ha / inhibition at 31 g/ha / inhibition at 63 g/ha: Mutarda arvensis, post-emergence. The method, then:
as §1

For experiment [2], the system named is Brassica kaber. Briefly: Experiment 4: glasshouse, pre-emergence, fresh weight after 27 days, % inhibition of growth. Particulars: for % inhibition of growth: Atrazine 0 g/ha. The protocol: (§2) Glasshouse experiments showing the biological interaction between atrazine and Compound 99 on weed species when applied pre-emergence. […] After 27 days the fresh weight of vegetation in each pot was determined. […] E = […]00005:character} where E, X and Y are percentage inhibition of growth. In addition the ED90 values (the application rate giving 90% inhibition of growth) were calculated from the results for Compound 99 alone and with increasing rates of atrazine. The ED90 values were then used to plot an isobole for each species according to the method of […] op cit. The results of percentage inhibition of growth, the ED values calculated from them and the calculated expected values are given in Table 8.

Another experiment deals with Sida spinosa. The description is as above. The note with it: for % inhibition of growth: Atrazine 0 g/ha. The method, then:
as §2

The next experiment concerns Solanum nigrum. Put plainly: Experiment 3: glasshouse, post-emergence, fresh weight after 19 days, % inhibition of growth. The note with it: for inhibition at 2 g/ha / inhibition at 4 g/ha / inhibition at 8 g/ha / inhibition at 16 g/ha / inhibition at 31 g/ha / inhibition at 63 g/ha: Solanum nigrum, post-emergence. The protocol:
as §1

Experiment [3] deals with Brachiaria plantaginea (BRAPL). Put plainly: Experiment 1: field experiment, post-emergence spray, % control 29 days after application. The protocol:
(§3) Duplicate 12m² plots were sprayed post-emergence with 250g or 500g/ha Compound 1 (in a composition according to Example 1 as described hereinafter) or 1500g/ha atrazine (in a commercial aqueous suspension concentrate formulation containing 500g/l w/v atrazine or a combination (as a tank mix) of the two herbicides in a volume of 300 litres/ha. The following control figures were recorded on the grass weeds Brachiaria plantaginea (BRAPL), Digitaria horizontalis (DIGHO) and Eleusine indica (ELEIN) 29 days after application.

Experiment [4] relates to Digitaria horizontalis (DIGHO). The experiment is described as above. The method, then: as §3
The test system of another experiment is Eleusine indica (ELEIN). The description is as above. The protocol: as §3

Take `CC1(C)CC(=O)C(C(=O)c2ccc(C(F)(F)F)cc2[N+](=O)[O-])C(=O)N1` (stereo not drawn) [Compound 99, 3-(2-nitro-4-trifluoromethylbenzoyl)-6,6-dimethylpiperidine-2,4-dione]: the figures for the inhibition at 2 g/ha in the experiment with Amaranthus retroflexus (Compound 99 2 g/ha alone) and in the experiment with Brassica kaber [1] (Compound 99 2 g/ha alone) were 37% and 22%, respectively. For the same molecule, the inhibition at 4 g/ha amounted to 85% in the experiment with Amaranthus retroflexus (Compound 99 4 g/ha alone) and 40% in the experiment with Brassica kaber [1] (Compound 99 4 g/ha alone). For the same molecule, the values for the inhibition at 8 g/ha in the experiment on Amaranthus retroflexus (Compound 99 8 g/ha alone) and with Brassica kaber [1] (Compound 99 8 g/ha alone) were 88% and 69%, respectively. In addition, the inhibition at 16 g/ha was determined as 80% in the experiment with Amaranthus retroflexus (Compound 99 16 g/ha alone) and 58% in the experiment on Brassica kaber [1] (Compound 99 16 g/ha alone). Further, the inhibition at 31 g/ha in the experiment with Amaranthus retroflexus (Compound 99 31 g/ha alone) and in the experiment on Brassica kaber [1] (Compound 99 31 g/ha alone) was 91% each time. Besides, the inhibition at 63 g/ha was 98% in the experiment with Amaranthus retroflexus (Compound 99 63 g/ha alone) and 91% in the experiment on Brassica kaber [1] (Compound 99 63 g/ha alone). Besides, the ED₉₀ entry was “ED₉₀(g/ha) 14” in the experiment with Amaranthus retroflexus (Compound 99 alone), “ED₉₀(g/ha) 31” in the experiment on Brassica kaber [1] (Compound 99 alone), “ED₉₀(g/ha) 340.34” in the experiment on Brassica kaber [2] (Compound 99 alone) and “ED₉₀(g/ha) 146.26” in the experiment on Sida spinosa (Compound 99 alone). Further, the “% inhibition of growth” value in the experiment with Brassica kaber [2] (Compound 99 8 g/ha) worked out at 0%; in the experiment on Brassica kaber [2] (Compound 99 16 g/ha) it was 9%; in the experiment with Brassica kaber [2] (Compound 99 31 g/ha) it was 10%; in the experiment on Brassica kaber [2] (Compound 99 63 g/ha), 32%; in the experiment on Brassica kaber [2] (Compound 99 125 g/ha), 20%; with Brassica kaber [2] (Compound 99 250 g/ha), 90%. Moreover, the “% inhibition of growth” value in the experiment on Sida spinosa (Compound 99 8 g/ha) is reported as 0%; in the experiment with Sida spinosa (Compound 99 16 g/ha), 17%; with Sida spinosa (Compound 99 31 g/ha), 26%; in the experiment with Sida spinosa (Compound 99 63 g/ha), 52%; in the experiment with Sida spinosa (Compound 99 125 g/ha) it was 88%; with Sida spinosa (Compound 99 250 g/ha) it was 97%.

`CS(=O)(=O)c1ccc(C(=O)C2C(=O)CCNC2=O)c([N+](=O)[O-])c1` (stereo not drawn) [Compound 110, 3-(4-methylsulphonyl-2-nitrobenzoyl)piperidine-2,4-dione]: the ED₉₀ result is recorded as “ED₉₀(g/ha) 6.38” in the experiment on Brassica kaber [1] (Compound 110 alone) and “ED₉₀(g/ha) 5.87” in the experiment on Solanum nigrum (Compound 110 alone, 1 leaf). In addition, the inhibition at 2 g/ha in the experiment with Brassica kaber [1] (Compound 110 2 g/ha alone) was 45%; in the experiment on Solanum nigrum (Compound 110 2 g/ha alone, 1 leaf), 38%. Also, the inhibition at 4 g/ha in the experiment on Brassica kaber [1] (Compound 110 4 g/ha alone) is 84%; in the experiment with Solanum nigrum (Compound 110 4 g/ha alone, 1 leaf) it was 80%. Further, the inhibition at 8 g/ha is 98% in the experiment on Brassica kaber [1] (Compound 110 8 g/ha alone) and 98% in the experiment on Solanum nigrum (Compound 110 8 g/ha alone, 1 leaf). Further, the inhibition at 16 g/ha came out at 99% in the experiment with Brassica kaber [1] (Compound 110 16 g/ha alone) and 100% with Solanum nigrum (Compound 110 16 g/ha alone, 1 leaf). The inhibition at 31 g/ha with Brassica kaber [1] (Compound 110 31 g/ha alone) was determined as 100%; in the experiment with Solanum nigrum (Compound 110 31 g/ha alone, 1 leaf), 100%. The inhibition at 63 g/ha with Brassica kaber [1] (Compound 110 63 g/ha alone) was 100%; in the experiment on Solanum nigrum (Compound 110 63 g/ha alone, 1 leaf), 100%.

`CS(=O)(=O)c1ccc(C(=O)C2C(=O)CCNC2=O)c(Cl)c1` (stereo not drawn) [Compound 126, 3-(2-chloro-4-methylsulphonylbenzoyl)piperidine-2,4-dione]: the ED₅₀ entry with Brassica kaber [1] (Compound 126 alone) is given as “ED₅₀(g/ha) 28.09”. For the same molecule, the inhibition at 2 g/ha in the experiment on Brassica kaber [1] (Compound 126 2 g/ha alone) is 0%; in the experiment on Solanum nigrum (Compound 126 2 g/ha alone, 2 leaves), 72%. The inhibition at 4 g/ha in the experiment on Brassica kaber [1] (Compound 126 4 g/ha alone) amounted to 0%; with Solanum nigrum (Compound 126 4 g/ha alone, 2 leaves) it was 90%. For the same molecule, the inhibition at 8 g/ha in the experiment with Brassica kaber [1] (Compound 126 8 g/ha alone) is 0%; in the experiment with Solanum nigrum (Compound 126 8 g/ha alone, 2 leaves), 97%. Also, the inhibition at 16 g/ha was found to be 42% in the experiment with Brassica kaber [1] (Compound 126 16 g/ha alone) and 100% in the experiment on Solanum nigrum (Compound 126 16 g/ha alone, 2 leaves). The inhibition at 31 g/ha in the experiment with Brassica kaber [1] (Compound 126 31 g/ha alone) was 69%; in the experiment with Solanum nigrum (Compound 126 31 g/ha alone, 2 leaves), 100%. Besides, the inhibition at 63 g/ha was 66% with Brassica kaber [1] (Compound 126 63 g/ha alone) and 100% with Solanum nigrum (Compound 126 63 g/ha alone, 2 leaves). Moreover, in the experiment on Solanum nigrum (Compound 126 alone, 2 leaves), the ED₉₀ entry is “ED₉₀(g/ha)4.18”.

Take `CC1(C)CC(=O)C(C(=O)c2ccc(Cl)cc2[N+](=O)[O-])C(=O)N1` (stereo not drawn) [Compound 1, 3-(4-chloro-2-nitrobenzoyl)-6,6-dimethylpiperidine-2,4-dione]: the “% control observed” value in experiment [3] (Compound 1 @ 250g/ha) came to 60%; in experiment [3] (Compound 1 @ 500g/ha) it was 80%; in experiment [4] (Compound 1 @ 250g/ha) it was 70%; in experiment [4] (Compound 1 @ 500g/ha), 80%; with Eleusine indica (ELEIN) (Compound 1 @ 250g/ha) it was 70%; in the experiment on Eleusine indica (ELEIN) (Compound 1 @ 500g/ha), 80%. Further, in the experiment on Amaranthus retroflexus (Compound 1 2 g/ha alone), the inhibition at 2 g/ha amounted to 25%. The molecule also registered an inhibition at 4 g/ha in the experiment on Amaranthus retroflexus (Compound 1 4 g/ha alone) of 52%. The molecule also came in with an inhibition at 8 g/ha with Amaranthus retroflexus (Compound 1 8 g/ha alone) of 73%. In the experiment with Amaranthus retroflexus (Compound 1 16 g/ha alone), this molecule came in with an inhibition at 16 g/ha of 87%. Also, the inhibition at 31 g/ha in the experiment on Amaranthus retroflexus (Compound 1 31 g/ha alone) was 95%. The inhibition at 63 g/ha in the experiment on Amaranthus retroflexus (Compound 1 63 g/ha alone) turned out to be 96%. Also, in the experiment on Amaranthus retroflexus (Compound 1 alone), the ED₉₀ result was “ED₉₀(g/ha) 22.58”.
